# Experimental data from ChEMBL document CHEMBL1142102, “Cytotoxic germacrane-type sesquiterpenes, pimarane-type diterpenes, and a naphthalene derivative from Wollastonia biflora” (J Nat Prod, 2007).
# Test: Cytotoxicity against human BEL-7402 cells after 72 hrs by SRB assay
# Type: cell-based
# Settings: Bel-7402, 72 h
row,SMILES,IC50
1,C=C(C)C(=O)O[C@@H]1C[C@H](CO)CC/C=C(/CO)C[C@H]2OC(=O)C(=C)[C@H]12,1720 nM
2,C=C(C)C(=O)O[C@@H]1C[C@H](CO)CC/C=C(/C=O)C[C@H]2OC(=O)C(=C)[C@H]12,1500 nM
3,C=C1C(=O)O[C@@H]2C/C(CO)=C\CC[C@@H](CO)C[C@@H](OC(=O)/C(C)=C\C)[C@@H]12,3000 nM
